We go through four compounds from article PMC2500149 (International Journal of Medical Sciences, 2008).

For data set [1] the following is noted: statement of the introduction; cited from earlier work.
A short description of data set [2]: Solubility of the peptides in water and TFE/water. The format is physicochemical.
A short description of data set [3]: Far UV circular dichroism, TFE polarity titration. The format is physicochemical. Conditions: aqueous solution, 10% TFE, 100 µg/ml. A general note: Circular dichroism is the unequal absorption of left and right circularly polarised light.
In the next data set the test system is cells. Conditions: free peptide without transporter; stated, no experiment described; cited from earlier work.

On to `Cc1ccc(NC(=O)NCCSCc2ccc(CN(C)C)o2)cc1Cl` [CAP-1], for which the water solubility entry in data set [1] is recorded as “limited water solubility”.

As for `C=C(C)[C@@H]1CC[C@]2(C(=O)O)CC[C@]3(C)[C@H](CC[C@@H]4[C@@]5(C)CC[C@H](OC(=O)CC(C)(C)C(=O)O)C(C)(C)[C@@H]5CC[C@]43C)[C@@H]12` [PA-457], in data set [1], the water solubility entry is reported as “limited water solubility”.

In the case of ITFEDLLDYYGP [CAI(Pep1)], the water solubility entry in data set [1] is reported as “limited water solubility”.

With ITFEDLLDYYGPKC [CAI-peptide], the “water solubility (in words)” value in data set [2] is “water insoluble”. In addition, the “aggregation (inferred from poor water solubility and β-structure in CD)” value in data set [3] was “oligomeric aggregates are formed”. The “direct cell permeation / transfer across biomembranes” value with cells was “cannot permeate cells directly”.
